Test results published in ChEMBL document CHEMBL5727660, “Compounds for the treatment of pain” (2020).

Target: Mu-type opioid receptor (Homo sapiens, UniProt P35372)
Assay: Competitive Displacement Assay: Membrane protein from CHO (Chinese Hamster Ovarian) cells that stably expressed one type of the cloned human opioid receptor were incubated with 12 different concentrations of the compound in the presence of 0.25 nM [3H]DAMGO, 0.2 nM [3H]naltrindole or 1 nM [3H]U69,593 in a final volume of 1 mL of 50 mM Tris-HCl, pH 7.5 at 25° C. Incubation times of 60 min were used for [3H]DAMGO and [3H]U69,593. Because of a slower association of [3H]naltrindole with the receptor, a 3 h incubation was used with this radioligand. Samples incubated with [3H]naltrindole also contained 10 mM MgCl2 and 0.5 mM phenylmethylsulfonyl fluoride. Nonspecific binding was measured by inclusion of 10 μM naloxone. The binding was terminated by filtering the samples through Schleicher & Schuell No. 32 glass fiber filters using a Brandel 48-well cell harvester. The filters were subsequently washed three times with 3 mL of cold 50 mM Tris-HCl, pH 7.5, and were counted in 2 mL Ecoscint A scintillation fluid. For [3H]naltrindole and [3H]U69,593 binding, the filters were soaked in 0.1% polyethylenimine for at least 60 min before use.

Mu-type opioid receptor, sequence (P35372 whole entry): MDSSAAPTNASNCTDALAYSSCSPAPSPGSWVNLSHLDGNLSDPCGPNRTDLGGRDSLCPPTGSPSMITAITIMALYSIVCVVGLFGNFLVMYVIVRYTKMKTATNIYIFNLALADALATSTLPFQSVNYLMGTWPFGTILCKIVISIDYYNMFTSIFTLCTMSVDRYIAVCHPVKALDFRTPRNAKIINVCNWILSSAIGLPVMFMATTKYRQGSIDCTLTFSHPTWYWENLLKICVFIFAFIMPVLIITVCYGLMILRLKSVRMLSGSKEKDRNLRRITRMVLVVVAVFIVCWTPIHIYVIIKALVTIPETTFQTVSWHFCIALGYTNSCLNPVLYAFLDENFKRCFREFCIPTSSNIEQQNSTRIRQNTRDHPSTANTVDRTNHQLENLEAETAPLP

COC1(c2ccnc(C(N)=O)c2)C2CCCC1CN(Cc1cc3ccccc3[nH]1)C2 (stereo unspecified)
Ki: < 1 nM
